{
  "source": "patent US12714698B2",
  "about": "“Compositions and methods for treating or preventing dermal disorders” (Drexel University, priority 2015, dated 2026)",
  "tested_on": "p53 and MDM2",
  "assay": "p53/MDM2 co-immunoprecipitation and p53 forms after proteasome inhibition",
  "format": "cell-based, human",
  "conditions": "after proteasome inhibitor",
  "experimental": "FIGS. 11A-11F illustrate status of p53 in human cardiac fibroblast cultures exposed to NRTIs and in rapamycin-treated cultures. FIG. 11A is a bar graph illustrating comet assay results for cells exposed to NRTIs or hydrogen peroxide as a positive control. The white bar represents control data; grey bar represents data from cells exposed to 10 or 20 μg/ml NRTI for 7 days; and the black bar represents data from cells exposed to 200 μM hydrogen peroxide for 2 hours. […] FIG. 11B depicts the results of an immunoprecipitation experiment using antibodies against p53. Cell lysates from control and rapamycin-treated cultures, with or without NRTI exposure for 7 days, were subjected to immunoprecipitation using anti-p53 antibodies followed by immunoblot analysis for MDM2 and subsequently for p53. […] FIG. 11F is a bar graph illustrating relative intensity of cytosolic MDM2 staining as determined by Image J Analysis.\nCell protein extracts were prepared by extracting with radioimmunoprecipitation assay (RIPA) buffer containing a protease inhibitor cocktail (Sigma-Aldrich) and phosphatase inhibitors, NaF and sodium orthovanadate. Protein concentration was quantified using a bicinchoninic acid (BCA) assay (Pierce Biotechnology). […] For co-immunoprecipitation, cell protein extracts were prepared in HNTG buffer containing a protease inhibitor cocktail and quantified using BCA assay. […]",
  "data": [
    {"smiles": "CO[C@H]1C[C@@H]2CC[C@@H](C)[C@@](O)(O2)C(=O)C(=O)N2CCCC[C@H]2C(=O)O[C@H]([C@H](C)C[C@@H]2CC[C@@H](O)[C@H](OC)C2)CC(=O)[C@H](C)/C=C(\\C)[C@@H](O)[C@@H](OC)C(=O)[C@H](C)C[C@H](C)/C=C/C=C/C=C/1C", "note": "[rapamycin]", "values": [
      {"measurement": "high molecular weight forms of p53", "result": "prominent"}
    ]}
  ]
}
